Reference: ChEMBL document CHEMBL2010746, “Synthesis, resolution and anticonvulsant activity of chiral N-1'-ethyl,N-3'-(1-phenylethyl)-(R,S)-2'H,3H,5'H-spiro-(2-benzofuran-1,4'-imidazolidine)-2',3,5'-trione diastereomers” (2012)
Calls of active or inactive are those of the source. The rule behind the calls is not given here.

Key:
Mus musculus [1] = experiment: Anticonvulsant activity in mouse assessed as decrease in pentylenetetrazol-induced convulsions at 300 mg/kg, ip at 30 mins; format: functional, organism-based; parameters: dose 300 mg/kg
Mus musculus [2] = experiment: Anticonvulsant activity in mouse assessed as decrease in pentylenetetrazol-induced convulsions up to 300 mg/kg, ip at 30 mins; format: functional, organism-based; parameters: dose 300 mg/kg
Mus musculus [3] = experiment: Anticonvulsant activity in ip dosed mouse assessed as decrease in pentylenetetrazol-induced convulsions at 30 mins; format: functional; conditions: 0.5 h

Compound | Activity (Mus musculus [2]) | ED50 (Mus musculus [3]) [mg/kg] | other results
CCN1C(=O)N([C@H](C)c2ccccc2)[C@]2(OC(=O)c3ccccc32)C1=O | – | – | Activity (Mus musculus [1]): Active
CCN1C(=O)N([C@@H](C)c2ccccc2)[C@]2(OC(=O)c3ccccc32)C1=O | inactive | – | –
CCC1(c2ccccc2)C(=O)NC(=O)NC1=O [PHENOBARBITAL] | – | 25 | –
CCN1C(=O)N([C@@H](C)c2ccccc2)[C@@]2(OC(=O)c3ccccc32)C1=O | – | 300 | –
CCN1C(=O)N([C@H](C)c2ccccc2)[C@@]2(OC(=O)c3ccccc32)C1=O | inactive | – | –
